Patent publication US10849878B2 (OBSHCHESTVO S OGRANICHENNOY OTVETSTVENNOSTYU “NORMOFARM”, priority 2015, dated 2020)

Assays:
white Wistar rats [1] = test: suspension test (24 h), antistress and anxiolytic activity; assay type: in vivo, rat; details: 60 mg/kg in the form of pills with cocoa, administration day 7
white Wistar rats [2] = test: transport stress simulation test (shaker, 240 min); assay type: in vivo, rat; parameters: AST in blood serum / ALT in blood serum / Creatinine in blood serum: unit not given here
Protocol: The anti-stress, anxiolytic and antidepressant effects of the claimed agent and compositions on its basis were determined as follows. […] The suspension test. Five animals from each group were used. Each animal was suspended for 24 hours. After that the sample of whole blood was taken from the sublingual vessels of that animal Then the animal was placed in a desiccator with diethyl ether. 60 minutes later a spinal decapitation of the animal was performed. The abdominal opening was performed and the number of ulcers on the inner surface of the stomach was counted. The obtained whole blood was placed in two test tubes. The whole blood was used to determine the number of eosinophils by the Duncker method. Serum was used to determine the biochemical composition of the blood. Adrenaline and norepinephrine were determined as biochemical indices. These characteristics are specific markers identifying the impact of stress factors of various etiologies. • 2. The transport stress simulation test. Five animals from each group were used. The animals were placed in cages fixed on a laboratory shutter. The duration of the test was 240 minutes. At the end of the test the animals were examined by the techniques described in paragraph 1. A sample of whole blood was taken to determine the number of eosinophils by the Duncker method. The blood serum was studied to measure the amount of enzymes: alanine aminotransferase (ALT), aspartate aminotransferase (AST), creatinine
The tests were carried out on 2-month-old rats of the Wistar line. The groups were selected according to the principle of paired counterparts.
During the course of the study the animals were selected from the formed groups of 10 animals each to participate in stress tests, 5 animals per test. The selection was made on the 7th, 14th, 21st day of the drug administration (experiments were performed on the same days right after selection). The animals were weighed weekly immediately before testing. The obtained data were processed by statistical methods of mathematical statistics. […] Water for injection produced by the “Bufus Novosibkhimpharm” was used as a solvent. The introduced volume was 1.5 ml. The solution was introduced at the same tine 2 hours after morning feeding. The first group was given water for injection by the same way. The volume of administration was 1.5 ml.
The rotating universal Shaker Unimax 10 was used as a model for simulating transport stress. The rotation speed was chosen at 120 rpm for 240 min A cage with five animals was fixed on the site. The rats stayed in the cage in a free state. A change in the reaction of animals with prolonged administration of the drug was observed. The sampling and decapitation process is described in Example 1.
Physiological, morphological and biochemical blood parametres were determined as markers of the impact of stress on animals, such as: individual and group behavior of animals, the number of enuresis acts, the number of defecation acts, and the number of excrement boluses; eosinophils in whole blood according to Duncker and the levels of ALT, AST enzymes and creatinine in the blood serum were measured.
Transport stress is a striking example of technological effect on animal and human body. […] Thus, it suits best as an indicator for the observation of the classical example of the development of the adaptive syndrome by Selye. In the experiment, a simulation of the transport impact on the rats was performed with the help of the laboratory shutter. Progressive 4 hour-long circular vibrations adversely affected the animals. The rats in the control group were constantly moving, colliding with each other trying to concentrate in the corners, where the amplitude of the oscillation was the highest. At the same time the number of defecation acts was higher. The animals behaved aggressively. The stronger ones tried to push out a weaker animal out of the corner.

[3] = 30 mg/kg solution by gastric tube, administration day 7
[4] = 30 mg/kg solution by gastric tube, administration day 14
[5] = 30 mg/kg solution by gastric tube, administration day 21
[6] = 60 mg/kg in the form of pills with cocoa, administration day 7
[7] = 60 mg/kg in the form of pills with cocoa, administration day 14
[8] = 60 mg/kg in the form of pills with cocoa, administration day 21
[9] = 60 mg/kg solution by gastric tube, administration day 7
[10] = 60 mg/kg solution by gastric tube, administration day 14
[11] = 60 mg/kg solution by gastric tube, administration day 21
[12] = 120 mg/kg solution by gastric tube, administration day 7
[13] = 120 mg/kg solution by gastric tube, administration day 14
[14] = 120 mg/kg solution by gastric tube, administration day 21

O=C1O[C@H]([C@@H](O)CO)C([O-])=C1O.[Li+] [lithium ascorbate]
Adrenaline level in blood serum (white Wistar rats [1]): 22.6 ± 4.27 µg/L
ALT in blood serum (white Wistar rats [2]; [3]): 29.8 ± 8.45
AST in blood serum (white Wistar rats [2]; [3]): 91.7 ± 7.29
Creatinine in blood serum (white Wistar rats [2]; [3]): 36.5 ± 3.84
Eosinophil count in whole blood (white Wistar rats [2]; [3]): 794 ± 6.9
Number of boluses in defecation (white Wistar rats [2]; [3]): 4.2 ± 0.4
ALT in blood serum (white Wistar rats [2]; [4]): 32.1 ± 9.10
AST in blood serum (white Wistar rats [2]; [4]): 109.9 ± 9.67
Creatinine in blood serum (white Wistar rats [2]; [4]): 48.1 ± 3.82
Eosinophil count in whole blood (white Wistar rats [2]; [4]): 921 ± 9.1
Number of boluses in defecation (white Wistar rats [2]; [4]): 3.9 ± 0.4
ALT in blood serum (white Wistar rats [2]; [5]): 31.7 ± 3.14
AST in blood serum (white Wistar rats [2]; [5]): 121.2 ± 7.21
Creatinine in blood serum (white Wistar rats [2]; [5]): 46.3 ± 3.26
Eosinophil count in whole blood (white Wistar rats [2]; [5]): 928 ± 10.7
Number of boluses in defecation (white Wistar rats [2]; [5]): 3.5 ± 0.3
ALT in blood serum (white Wistar rats [2]; [6]): 22.7 ± 8.19
AST in blood serum (white Wistar rats [2]; [6]): 68.8 ± 4.72
Creatinine in blood serum (white Wistar rats [2]; [6]): 25.7 ± 4.30
Eosinophil count in whole blood (white Wistar rats [2]; [6]): 528 ± 5.8
Number of boluses in defecation (white Wistar rats [2]; [6]): 7.2 ± 1.5
ALT in blood serum (white Wistar rats [2]; [7]): 34.8 ± 6.83
AST in blood serum (white Wistar rats [2]; [7]): 119.7 ± 6.21
Creatinine in blood serum (white Wistar rats [2]; [7]): 56.7 ± 6.44
Eosinophil count in whole blood (white Wistar rats [2]; [7]): 938 ± 11.7
Number of boluses in defecation (white Wistar rats [2]; [7]): 5.2 ± 0.9
ALT in blood serum (white Wistar rats [2]; [8]): 35.0 ± 4.29
AST in blood serum (white Wistar rats [2]; [8]): 121. ± 4.29
Creatinine in blood serum (white Wistar rats [2]; [8]): 58.4 ± 9.30
Eosinophil count in whole blood (white Wistar rats [2]; [8]): 947 ± 12.4
Number of boluses in defecation (white Wistar rats [2]; [8]): 3.7 ± 0.3
ALT in blood serum (white Wistar rats [2]; [9]): 31.0 ± 3.15
AST in blood serum (white Wistar rats [2]; [9]): 97.9 ± 5.04
Creatinine in blood serum (white Wistar rats [2]; [9]): 39.6 ± 7.98
Eosinophil count in whole blood (white Wistar rats [2]; [9]): 822 ± 8.7
Number of boluses in defecation (white Wistar rats [2]; [9]): 4.6 ± 0.4
ALT in blood serum (white Wistar rats [2]; [10]): 33.1 ± 2.84
AST in blood serum (white Wistar rats [2]; [10]): 112.4 ± 6.23
Creatinine in blood serum (white Wistar rats [2]; [10]): 48.3 ± 8.27
Eosinophil count in whole blood (white Wistar rats [2]; [10]): 919 ± 4.1
Number of boluses in defecation (white Wistar rats [2]; [10]): 3.9 ± 0.4
ALT in blood serum (white Wistar rats [2]; [11]): 32.4 ± 6.37
AST in blood serum (white Wistar rats [2]; [11]): 115.5 ± 8.97
Creatinine in blood serum (white Wistar rats [2]; [11]): 45.6 ± 2.73
Eosinophil count in whole blood (white Wistar rats [2]; [11]): 922 ± 9.3
Number of boluses in defecation (white Wistar rats [2]; [11]): 3.7 ± 0.7
ALT in blood serum (white Wistar rats [2]; [12]): 32.4 ± 7.75
AST in blood serum (white Wistar rats [2]; [12]): 107.1 ± 6.20
Creatinine in blood serum (white Wistar rats [2]; [12]): 39.8 ± 6.13
Eosinophil count in whole blood (white Wistar rats [2]; [12]): 856 ± 4.2
Number of boluses in defecation (white Wistar rats [2]; [12]): 5.0 ± 1.1
ALT in blood serum (white Wistar rats [2]; [13]): 31.7 ± 7.32
AST in blood serum (white Wistar rats [2]; [13]): 110.3 ± 7.41
Creatinine in blood serum (white Wistar rats [2]; [13]): 47.8 ± 1.46
Eosinophil count in whole blood (white Wistar rats [2]; [13]): 901 ± 16.8
Number of boluses in defecation (white Wistar rats [2]; [13]): 4.1 ± 1.1
ALT in blood serum (white Wistar rats [2]; [14]): 30.1 ± 7.42
AST in blood serum (white Wistar rats [2]; [14]): 118.7 ± 4.48
Creatinine in blood serum (white Wistar rats [2]; [14]): 42.1 ± 2.97
Eosinophil count in whole blood (white Wistar rats [2]; [14]): 907 ± 4.3
Number of boluses in defecation (white Wistar rats [2]; [14]): 4.0 ± 1.0
